Measured values: patent publication US10358446B2, “Bruton's tyrosine kinase inhibitors” (Zibo Biopolar Changsheng Pharmaceutical Co. Ltd., priority 2015, dated 2019)

target: BTK (Homo sapiens (Human), UniProt Q06187); assay: Btk kinase assay (HTRF); format: biochemical; conditions: [ATP]=80 μM, BTK=3.4 nM; read-out: BTK Inhibition
Summary of the method: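 HTRF kinase read-out (665/615 nm ratio, excitation 330 nm) after EDTA quench and 1 h detection incubation. Reaction: 3.4 nM BTK, ATP 80 μM, peptide substrate 1 μM, compound, HEPES pH 7.0 buffer, 1 h; IC50 derived using uninhibited and enzyme-free controls.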

Chain of BTK (Q06187 whole entry, species assumed): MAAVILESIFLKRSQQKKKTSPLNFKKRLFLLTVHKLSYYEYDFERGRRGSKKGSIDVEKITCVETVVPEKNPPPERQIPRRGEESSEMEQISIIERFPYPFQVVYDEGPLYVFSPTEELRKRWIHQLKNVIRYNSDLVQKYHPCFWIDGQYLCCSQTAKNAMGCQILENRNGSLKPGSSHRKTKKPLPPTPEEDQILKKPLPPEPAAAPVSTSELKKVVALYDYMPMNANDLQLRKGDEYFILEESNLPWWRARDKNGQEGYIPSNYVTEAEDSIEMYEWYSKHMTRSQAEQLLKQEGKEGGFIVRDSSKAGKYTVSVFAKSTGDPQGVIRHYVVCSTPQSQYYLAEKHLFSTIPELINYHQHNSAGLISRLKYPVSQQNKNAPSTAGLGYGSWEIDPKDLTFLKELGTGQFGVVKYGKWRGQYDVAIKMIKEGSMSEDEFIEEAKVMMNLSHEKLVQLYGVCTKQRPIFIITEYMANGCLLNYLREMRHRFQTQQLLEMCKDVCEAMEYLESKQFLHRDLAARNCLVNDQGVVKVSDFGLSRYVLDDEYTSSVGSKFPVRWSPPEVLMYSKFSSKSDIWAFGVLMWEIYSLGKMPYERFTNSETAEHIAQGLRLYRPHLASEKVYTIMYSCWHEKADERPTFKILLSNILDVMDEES

Row | IC50 [nM] | SMILES
1 | 10 to 100 | C=CC(=O)N1CCC(n2c(=O)n(-c3ccc(Oc4ccccc4)c(C)c3)c3cnccc32)C1 (stereo not shown) [Example 91, 1-(1-acryloylpyrrolidin-3-yl)-3-(3-methy1-4-phenoxyphenyl)-1,3-dihydro-2H-imidazo[4,5-c]pyridin-2-one]
2 | 10 to 100 | C=CC(=O)N1CCC(n2c(=O)n(-c3ccc(Oc4cccc(C(F)(F)F)c4)c(Cl)c3)c3cnccc32)C1 (stereo not shown) [Example 6, 1-(1-acryloylpyrrolidin-3-yl)-3-(3-chloro-4-(3-(trifluoromethyl)phenoxy)phenyl)-1H-imidazo[4,5-c]pyridin-2(3H)-one]
3 | 10 to 100 | C=CC(=O)Nc1cccc(-n2c(=O)n(-c3cccc(OCc4ccccc4)c3)c3cnccc32)c1 [Example 233, N-(3-(3-(3-(benzyloxy)phenyl)-2-oxo-2,3-dihydro-1H-imidazo[4,5-c]pyridin-1-yl)phenyl)acrylamide]
4 | 10 to 100 | C=CC(=O)N1CC[C@@H](n2c(=O)n(-c3cccc(Oc4cccc(OC5CC5)c4)c3)c3cnccc32)C1 [Example 56, (R)-1-(1-acryloylpyrrolidin-3-yl)-3-(3-(3-cyclopropoxyphenoxy)phenyl)-1H-imidazo[4,5-c]pyridin-2(3H)-one]
5 | 100 to 1000 | C=CC(=O)Nc1cccc(-n2c(=O)n(-c3ccc(Oc4cc(F)cc(Cl)c4)cc3)c3cnccc32)c1 [Example 129, N-(3-(3-(4-(3-chloro-5-fluorophenoxy)phenyl)-2-oxo-2,3-dihydro-1H-imidazo[4,5-c]pyridin-1-yl)phenyl)acrylamide]
6 | 10 to 100 | C=CC(=O)N1CCC[C@@H](n2c(=O)n(-c3ccc(Oc4cccc(F)c4C)cc3)c3cnccc32)C1 [Example 57, (R)-1-(1-acryloylpiperidin-3-yl)-3-(4-(3-fluoro-2-methylphenoxy)phenyl)-1H-imidazo[4,5-c]pyridin-2(3H)-one]
7 | 100 to 1000 | C=CC(=O)N1CC[C@@H](n2c(=O)n(-c3cccc(-c4ccccc4C)c3)c3cnccc32)C1 [Example 273, (R)-1-(1-acryloylpyrrolidin-3-yl)-3-(2′-methyl-[1,1′-biphenyl]-3-yl)-1H-imidazo[4,5-c]pyridin-2(3H)-one]
8 | 10 to 100 | C=CC(=O)N1CCC[C@@H](n2c(=O)n(-c3ccc(Oc4cccc(OC)c4)cc3)c3cnccc32)C1 [Example 118, (R)-1-(1-acryloylpiperidin-3-yl)-3-(4-(3-methoxyphenoxy)phenyl)-1H-imidazo[4,5-c]pyridin-2(3H)-one]
9 | 100 to 1000 | C=CC(=O)N1CC[C@@H](n2c(=O)n(-c3ccc(OCc4cccc(C(F)(F)F)c4)c(Cl)c3)c3cnccc32)C1 [Example 200, (R)-1-(1-acryloylpyrrolidin-3-yl)-3-(3-chloro-4-((3-(trifluoromethyl)benzyl)oxy)phenyl)-1H-imidazo[4,5-c]pyridine-2(3H)-one]
10 | 10 to 100 | C=CC(=O)Nc1cccc(-n2c(=O)n(-c3cccc(Oc4ccccc4)c3)c3cnccc32)c1 [Example 7, N-(3-(2-oxo-3-(3-phenoxyphenyl)-2,3-dihydro-1H-imidazo[4,5-c]pyridin-1-yl)phenyl)acrylamide]
11 | 100 to 1000 | C=CC(=O)Nc1cccc(-n2c(=O)n(-c3ccc(OCc4cc(F)cc(F)c4)cc3)c3cnccc32)c1 [Example 219, N-(3-(3-(4-((3,5-difluorobenzyl)oxy)phenyl)-2-oxo-2,3-dihydro-1H-imidazo[4,5-c]pyridin-1-yl)phenyl)acrylamide]
12 | 10 to 100 | C=CC(=O)Nc1cccc(-n2c(=O)n(-c3ccc(OCc4ccc(Cl)cc4)cc3)c3cnccc32)c1 [Example 221, N-(3-(3-(4-((4-chlorobenzyl)oxy)phenyl)-2-oxo-2,3-dihydro-1H-imidazo[4,5-c]pyridin-1-yl)phenyl)acrylamide]
13 | 10 to 100 | C=CC(=O)Nc1cccc(-n2c(=O)n(-c3cccc(Oc4ccc(C)cc4)c3)c3cnccc32)c1 [Example 76, N-(3-(2-oxo-3-(3-(p-tolyloxy)phenyl)-2,3-dihydro-1H-imidazo[4,5-c]pyridin-1-yl)phenyl)acrylamide]
